Reference: ChEMBL document CHEMBL5380860, “Design, Synthesis, and Antitumor Activity of Potent and Selective EGFR L858R/T790M Inhibitors and Identification of a Combination Therapy to Overcome Acquired Resistance in Models of Non-small-cell Lung Cancer” (J Med Chem, 2023)
Active and inactive are the calls of the source. The rule behind the calls is not given here.

Experiments:
[1] = molecular target: Epidermal growth factor receptor (Homo sapiens, UniProt P00533, T790M); experiment: Inhibition of human partial length EGFR (R669 to G1022 residues) T790M mutant expressed in mammalian expression system by KINOMEscan analysis
wild type EGFR = wild type EGFR (Homo sapiens, UniProt P00533); experiment: Inhibition of human wild type partial length EGFR (R669 to V1011 residues) expressed in bacterial expression system assessed as residual activity at 1 uM by KINOMEscan analysis; assay type: toxicity; conditions: read-out: Activity
NCI-H1975 [2] = experiment: Inhibition of clonogenicity in human NCI-H1975 cells assessed as inhibition of colony formation at 0.1 uM incubated for 14 days by crystal violet staining based analysis; assay type: functional, cell-based; conditions: time 14.0 day
NCI-H1975 [3] = experiment: Antitumor activity against N-(3-((6-Fluoro-2-((4-(4-methylpiperazin-1-yl)phenyl)amino)quinazolin-4-yl)amino)phenyl)acrylamide-resistant human NCI-H1975 cells xenografted in BALB/c mouse assessed as inhibition of tumor volume at 20 mg/kg/day, ip in presence of ACK1 inhibitor, dasatinib; assay type: functional, organism-based
[4] = Toxicity in BALB/c mouse xenografted with human NCI-H1975 cells assessed as effect on body weight at 5 to 20 mg/kg/day, ip; assay type: organism-based; conditions: in vivo, dose 5-20 mg/kg/day
[5] = tested on: Epidermal growth factor receptor (Homo sapiens), P00533 [L858R,T790M]; experiment: Inhibition of EGFR L858R/T790M mutant in N-(3-((6-Fluoro-2-((4-(4-methylpiperazin-1-yl)phenyl)amino)quinazolin-4-yl)amino)phenyl)acrylamide-resistant human NCI-H1975 cells assessed as inhibition of EGF-induced AKT phosphorylation at Ser473 residue pretreated with compound and ACK1 inhibitor, Dasatinib for 4 hrs followed by incubation with EGF for 10 mins by western blot analysis; assay type: cell-based; conditions: time 250.0 min
A549 [6] = experiment: Inhibition of cell migration in human A549 cells at 10 uM incubated for 48 hrs by scratch wound healing assay; assay type: toxicity, cell-based; conditions: a549, 48 h
Mus musculus [7] = experiment: In vivo inhibition of EGFR L858R/T790M mutant in NCI-H1975 cells xenografted BALB/c mouse assessed as inhibition of AKT phosphorylation at Ser473 residue at 5 to 20 mg/kg/day, ip in tumor by immunohistochemistry; assay type: functional, organism-based; conditions: dose 5-20 mg/kg/day
HCC827 = experiment: Induction of apoptosis in human HCC827 cells assessed as induction of caspase-3 cleavage pretreated with compound for 4 hrs followed by incubation with EGF for 10 mins by western blot analysis; assay type: functional, cell-based; conditions: dose 0.1-10 µM, time 250.0 min
NCI-H1975 [8] = experiment: Inhibition of cell migration in human NCI-H1975 cells at 0.1 uM incubated for 48 hrs by scratch wound healing assay; assay type: functional, cell-based
[9] = Clearance in Sprague-Dawley rat at 1 mg/kg, iv by LC-MS analysis; assay type: ADME, organism-based; conditions: in vivo
NCI-H1975 [10] = experiment: Antiproliferative activity against N-(3-((6-Fluoro-2-((4-(4-methylpiperazin-1-yl)phenyl)amino)quinazolin-4-yl)amino)phenyl)acrylamide-resistant human NCI-H1975 cells assessed as reduction in cell viability at compound:dasatinib concentration ratio of 3:1 to 1:3 measured after 72 hrs in presence of ACK1 inhibitor, Dasatinib by MTT assay; assay type: functional, cell-based
[11] = molecular target: Epidermal growth factor receptor (Homo sapiens, UniProt P00533, EX19DEL); experiment: Inhibition of human EGFR exon del19 mutant by KINOMEscan analysis
[12] = Selectivity ratio of IC50 for cytotoxicity against human A-431 cells harboring wild type EGFR to IC50 for antiproliferative activity against human NCI-H1975 cells harboring EGFR L858R/T790M mutant; assay type: toxicity, cell-based; conditions: read-out: Ratio IC50
A-431 = experiment: Induction of apoptosis in human A-431 cells assessed as increase in caspase-3/7 activity at 0.1 to 10 uM incubated for 24 hrs by Caspase-Glo reagent based luminescence analysis; assay type: toxicity, cell-based; conditions: a-431, 24 h, dose 0.1-10 µM
[13] = Apparent volume of distribution in Sprague-Dawley rat at 1 mg/kg, iv by LC-MS analysis; assay type: ADME, organism-based; conditions: in vivo, read-out: Vz
[14] = tested on: Epidermal growth factor receptor (Homo sapiens), P00533 [L858R,T790M]; experiment: Inhibition of EGFR L858R/T790M mutant in osimertinib-resistant human NCI-H1975 cells assessed as inhibition of EGF-induced Akt phosphorylation at Ser473 residue pretreated with compound for 4 hrs followed by incubation with EGF for 10 mins by western blot analysis; assay type: cell-based; conditions: time 250.0 min
[15] = molecular target: Epidermal growth factor receptor (Homo sapiens, UniProt P00533); experiment: Inhibition of wild type EGFR in human A-431 cells assessed as inhibition of EGF-induced Akt phosphorylation at Ser473 residue at 0.1 to 10 uM pretreated with compound for 4 hrs followed by incubation with EGF for 10 mins by western blot analysis; assay type: toxicity, cell-based; conditions: a-431, 4.167 h, dose 0.1-10 µM, time 250 min
A549 [16] = experiment: Induction of apoptosis in human A549 cells assessed as increase in caspase-3/7 activity at 0.1 to 10 uM incubated for 24 hrs by Caspase-Glo reagent based luminescence analysis; assay type: toxicity, cell-based; conditions: a549, 24 h, dose 0.1-10 µM
[17] = molecular target: Proto-oncogene tyrosine-protein kinase Src (Homo sapiens, UniProt P12931); experiment: Inhibition of human wild type partial length Src kinase (L240 to L536 residues) expressed in bacterial expression system by KINOMEscan analysis
[18] = Half life in Sprague-Dawley rat at 1 mg/kg, iv by LC-MS analysis; assay type: ADME, organism-based; conditions: in vivo
NCI-H1975 [19] = experiment: Antitumor activity against human NCI-H1975 cells xenografted in ip dosed BALB/c mouse assessed as decrease in tumor weight; assay type: functional, organism-based; conditions: dose 5-20 mg/kg/day
NCI-H1975 [20] = experiment: Synergistic antiproliferative activity against N-(3-((6-Fluoro-2-((4-(4-methylpiperazin-1-yl)phenyl)amino)quinazolin-4-yl)amino)phenyl)acrylamide-resistant human NCI-H1975 cells assessed as combination index measured after 72 hrs in presence of ACK1 inhibitor, AIM100 by MTT assay; assay type: functional
A549 [21] = experiment: Inhibition of clonogenicity in human A549 cells assessed as inhibition of colony formation at 0.1 to 10 uM incubated for 14 days by crystal violet staining based analysis; assay type: toxicity, cell-based; conditions: a549, 336 h, dose 0.1-10 µM, time 14 day
[22] = Covalent binding affinity to L-cysteine assessed as increase in 619.2 Da mass at L-cysteine to compound concentration ratio of 1:4 incubated for 8 hrs by LC-MS analysis
[23] = tested on: Epidermal growth factor receptor (Homo sapiens), P00533 [L858R,T790M]; experiment: Inhibition of EGFR L858R/T790M mutant in human NCI-H1975 cells assessed as inhibition of EGF-induced EGFR phosphorylation at Tyr1068 residue at 1 uM pretreated with compound for 4 hrs followed by incubation with EGF for 10 mins by western blot analysis; assay type: cell-based; conditions: time 250.0 min
[24] = tested on: Epidermal growth factor receptor (Homo sapiens), P00533 [L858R,T790M]; experiment: Inhibition of EGFR L858R/T790M mutant in N-(3-((6-Fluoro-2-((4-(4-methylpiperazin-1-yl)phenyl)amino)quinazolin-4-yl)amino)phenyl)acrylamide-resistant human NCI-H1975 cells assessed as inhibition of EGF-induced EGFR phosphorylation at Tyr1068 residue pretreated with compound for 4 hrs followed by incubation with EGF for 10 mins by western blot analysis; assay type: cell-based; conditions: time 250.0 min
NCI-H1975 [25] = experiment: Antitumor activity against N-(3-((6-Fluoro-2-((4-(4-methylpiperazin-1-yl)phenyl)amino)quinazolin-4-yl)amino)phenyl)acrylamide-resistant human NCI-H1975 cells xenografted in BALB/c mouse assessed as inhibition of tumor weight at 20 mg/kg/day, ip in presence of ACK1 inhibitor, dasatinib; assay type: functional, organism-based
Mus musculus [26] = species: Mus musculus; conditions: BALB/c, dose 10.0 mg/kg/day, route po
Mus musculus [27] = species: Mus musculus; conditions: BALB/c, dose 10.0 mg/kg/day, route po; remark: listed apart in the source

Epidermal growth factor receptor (Homo sapiens), P00533 [L858R,T790M], sequence (P00533 whole entry T790M/L858R, looked up): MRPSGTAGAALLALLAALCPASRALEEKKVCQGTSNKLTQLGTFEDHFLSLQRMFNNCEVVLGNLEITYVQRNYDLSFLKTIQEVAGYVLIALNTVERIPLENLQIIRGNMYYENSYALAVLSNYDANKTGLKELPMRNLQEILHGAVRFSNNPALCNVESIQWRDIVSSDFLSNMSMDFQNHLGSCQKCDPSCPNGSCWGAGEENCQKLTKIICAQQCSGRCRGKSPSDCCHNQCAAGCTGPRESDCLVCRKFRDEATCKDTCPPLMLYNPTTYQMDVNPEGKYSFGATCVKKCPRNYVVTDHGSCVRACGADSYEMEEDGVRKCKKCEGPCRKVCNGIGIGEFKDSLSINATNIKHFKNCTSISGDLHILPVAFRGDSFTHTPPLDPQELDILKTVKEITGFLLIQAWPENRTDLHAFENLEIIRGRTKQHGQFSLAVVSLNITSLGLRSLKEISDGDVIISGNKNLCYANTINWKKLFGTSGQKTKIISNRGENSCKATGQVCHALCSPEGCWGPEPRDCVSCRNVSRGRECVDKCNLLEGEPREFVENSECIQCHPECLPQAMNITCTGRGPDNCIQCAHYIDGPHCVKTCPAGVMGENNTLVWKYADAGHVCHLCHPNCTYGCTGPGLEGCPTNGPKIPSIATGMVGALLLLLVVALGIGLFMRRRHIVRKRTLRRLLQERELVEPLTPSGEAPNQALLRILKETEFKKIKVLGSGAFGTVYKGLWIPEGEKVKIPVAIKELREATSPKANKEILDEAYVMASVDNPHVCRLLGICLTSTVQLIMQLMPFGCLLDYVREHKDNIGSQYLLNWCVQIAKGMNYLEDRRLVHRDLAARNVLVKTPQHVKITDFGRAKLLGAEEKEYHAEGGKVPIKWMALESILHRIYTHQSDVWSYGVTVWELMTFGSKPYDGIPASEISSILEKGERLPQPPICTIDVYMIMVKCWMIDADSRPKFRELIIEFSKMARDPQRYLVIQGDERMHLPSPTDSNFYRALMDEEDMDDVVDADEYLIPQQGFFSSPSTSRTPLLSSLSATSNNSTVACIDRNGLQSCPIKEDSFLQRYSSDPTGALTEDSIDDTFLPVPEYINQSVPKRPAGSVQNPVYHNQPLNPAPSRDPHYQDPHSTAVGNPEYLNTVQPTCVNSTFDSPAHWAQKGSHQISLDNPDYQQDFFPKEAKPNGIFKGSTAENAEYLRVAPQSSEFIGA
Epidermal growth factor receptor (Homo sapiens, UniProt P00533, T790M), sequence (P00533 25-1210 T790M limits assumed): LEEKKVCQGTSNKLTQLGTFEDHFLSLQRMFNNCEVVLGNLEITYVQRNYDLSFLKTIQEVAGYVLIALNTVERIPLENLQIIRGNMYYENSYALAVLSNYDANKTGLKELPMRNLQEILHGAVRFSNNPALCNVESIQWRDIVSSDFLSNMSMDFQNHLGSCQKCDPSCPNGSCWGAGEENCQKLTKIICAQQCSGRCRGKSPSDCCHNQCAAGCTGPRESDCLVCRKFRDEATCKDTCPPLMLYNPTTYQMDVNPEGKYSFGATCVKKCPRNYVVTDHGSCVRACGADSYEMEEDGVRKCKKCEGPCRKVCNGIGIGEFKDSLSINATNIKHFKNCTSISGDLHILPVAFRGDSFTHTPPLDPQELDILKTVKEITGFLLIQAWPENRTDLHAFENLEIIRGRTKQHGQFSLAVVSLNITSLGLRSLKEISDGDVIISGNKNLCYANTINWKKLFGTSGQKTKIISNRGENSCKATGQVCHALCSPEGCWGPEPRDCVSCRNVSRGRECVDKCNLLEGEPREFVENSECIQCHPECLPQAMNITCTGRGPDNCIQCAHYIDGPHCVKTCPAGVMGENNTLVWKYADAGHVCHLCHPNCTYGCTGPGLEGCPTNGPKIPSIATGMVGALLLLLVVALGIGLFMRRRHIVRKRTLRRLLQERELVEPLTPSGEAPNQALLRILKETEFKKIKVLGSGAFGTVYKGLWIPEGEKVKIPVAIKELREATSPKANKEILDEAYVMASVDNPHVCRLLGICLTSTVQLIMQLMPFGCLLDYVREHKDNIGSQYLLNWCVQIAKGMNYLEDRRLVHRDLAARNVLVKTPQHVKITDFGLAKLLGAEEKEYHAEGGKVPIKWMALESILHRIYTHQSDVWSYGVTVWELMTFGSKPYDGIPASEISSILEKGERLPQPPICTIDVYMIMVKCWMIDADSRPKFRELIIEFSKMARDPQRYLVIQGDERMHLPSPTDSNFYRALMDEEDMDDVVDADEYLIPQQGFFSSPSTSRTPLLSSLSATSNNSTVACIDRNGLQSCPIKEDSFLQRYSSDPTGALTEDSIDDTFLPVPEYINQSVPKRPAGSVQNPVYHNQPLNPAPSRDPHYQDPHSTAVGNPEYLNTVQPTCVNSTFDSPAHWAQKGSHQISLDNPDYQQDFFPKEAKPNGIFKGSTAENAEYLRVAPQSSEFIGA
Proto-oncogene tyrosine-protein kinase Src, sequence (P12931 2-536 limits assumed): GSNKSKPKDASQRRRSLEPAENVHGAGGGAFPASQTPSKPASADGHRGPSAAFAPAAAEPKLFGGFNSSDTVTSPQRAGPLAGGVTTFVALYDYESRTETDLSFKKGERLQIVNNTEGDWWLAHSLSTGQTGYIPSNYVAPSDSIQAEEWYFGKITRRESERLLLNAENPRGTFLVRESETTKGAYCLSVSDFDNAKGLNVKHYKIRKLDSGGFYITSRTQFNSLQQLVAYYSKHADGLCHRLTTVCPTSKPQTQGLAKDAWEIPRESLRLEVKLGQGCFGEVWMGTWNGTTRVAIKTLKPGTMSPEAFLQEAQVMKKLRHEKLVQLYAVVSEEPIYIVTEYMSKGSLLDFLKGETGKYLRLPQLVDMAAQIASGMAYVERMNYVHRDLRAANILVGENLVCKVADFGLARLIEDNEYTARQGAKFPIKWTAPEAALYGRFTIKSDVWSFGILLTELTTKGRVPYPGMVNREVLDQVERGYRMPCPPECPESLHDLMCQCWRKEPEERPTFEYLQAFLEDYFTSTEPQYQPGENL
Epidermal growth factor receptor (Homo sapiens, UniProt P00533), sequence (P00533 whole entry): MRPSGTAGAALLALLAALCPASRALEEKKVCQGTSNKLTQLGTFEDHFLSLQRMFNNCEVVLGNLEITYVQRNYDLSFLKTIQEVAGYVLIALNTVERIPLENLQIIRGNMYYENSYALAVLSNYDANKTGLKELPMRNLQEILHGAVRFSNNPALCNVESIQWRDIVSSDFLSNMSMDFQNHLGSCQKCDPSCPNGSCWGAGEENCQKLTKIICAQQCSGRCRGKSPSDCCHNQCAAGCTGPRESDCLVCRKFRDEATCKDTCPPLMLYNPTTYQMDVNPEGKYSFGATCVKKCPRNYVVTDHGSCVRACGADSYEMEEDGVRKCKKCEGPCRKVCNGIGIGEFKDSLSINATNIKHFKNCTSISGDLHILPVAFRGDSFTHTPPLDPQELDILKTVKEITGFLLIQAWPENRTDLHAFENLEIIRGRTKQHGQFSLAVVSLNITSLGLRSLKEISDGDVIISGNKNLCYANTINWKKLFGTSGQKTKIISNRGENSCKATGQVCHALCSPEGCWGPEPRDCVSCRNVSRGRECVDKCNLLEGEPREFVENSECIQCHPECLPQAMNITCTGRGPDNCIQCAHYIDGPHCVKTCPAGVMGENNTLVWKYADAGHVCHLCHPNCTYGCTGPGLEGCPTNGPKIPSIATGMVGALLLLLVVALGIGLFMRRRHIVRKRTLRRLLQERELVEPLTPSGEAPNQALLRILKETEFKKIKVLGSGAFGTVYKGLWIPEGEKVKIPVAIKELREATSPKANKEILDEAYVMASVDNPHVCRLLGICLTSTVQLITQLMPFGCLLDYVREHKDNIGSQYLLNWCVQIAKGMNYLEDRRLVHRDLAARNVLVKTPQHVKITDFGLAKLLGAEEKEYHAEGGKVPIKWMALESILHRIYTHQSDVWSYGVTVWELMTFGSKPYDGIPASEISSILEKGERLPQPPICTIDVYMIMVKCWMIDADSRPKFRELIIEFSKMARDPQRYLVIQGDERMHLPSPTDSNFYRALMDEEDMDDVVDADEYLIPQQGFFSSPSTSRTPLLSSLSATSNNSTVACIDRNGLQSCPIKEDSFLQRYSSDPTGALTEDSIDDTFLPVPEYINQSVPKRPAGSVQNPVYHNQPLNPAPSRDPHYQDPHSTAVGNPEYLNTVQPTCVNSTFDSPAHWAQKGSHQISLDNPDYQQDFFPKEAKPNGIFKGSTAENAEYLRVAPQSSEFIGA

SMILES: C=CC(=O)Nc1cccc(Nc2nc(Nc3ccc(N4CCN(C)CC4)cc3)nc3ccc(F)cc23)c1
- IC50 [1]: 6.7 nM
- activity at 1 µM (wild type EGFR): 96%
- inhibition (NCI-H1975 [2]): Active
- Activity (NCI-H1975 [3]): Active
- Activity [4]: Non-Toxic
- inhibition [5]: Active
- Activity (A549 [6]): Non-Toxic
- inhibition (Mus musculus [7]): Active
- Activity (HCC827): Dose-Dependent Effect
- inhibition (NCI-H1975 [8]): Active
- clearance [9]: 16.1 mL/min/kg
- Activity (NCI-H1975 [10]): Active
- IC50 [11]: 1.3 nM
- selectivity ratio [12]: 130
- Activity (A-431): Non-Toxic
- Vd [13]: 2.52 L/kg
- inhibition [14]: inactive
- inhibition (INH) [15]: Not Active
- Activity (A549 [16]): Non-Toxic
- IC50 [17]: 603 nM
- half-life [18]: 1.76 h
- Activity (NCI-H1975 [19]): Dose-Dependent Effect
- CI (NCI-H1975 [20]): <2
- Activity (A549 [21]): Non-Toxic
- Activity [22]: Active
- inhibition [23]: Active
- inhibition [24]: Active
- Activity (NCI-H1975 [25]): Active

SMILES: C=CC(=O)Nc1cc(Nc2nccc(-c3cn(C)c4ccccc34)n2)c(OC)cc1N(C)CCN(C)C [OSIMERTINIB]
- inhibition (Mus musculus [26]): Active
- inhibition (Mus musculus [27]): Active
